Measurements published in ChEMBL document CHEMBL5614417, “Discovery of AMPs from random peptides via deep learning-based model and biological activity validation” (Eur J Med Chem, 2024).
≈ marks a conversion by molar mass, not a printed value. Calls of active or inactive are those of the source. No cut-off for these calls is given here. Where a SMILES comes first, the peptide text is derived from it.

Assays:
[1] = system: Staphylococcus epidermidis; test: Antibacterial activity against Staphylococcus epidermidis ATCC 12228 incubated for 18 hrs by visual inspection method; format: functional
Bacillus subtilis = test: Antibacterial activity against Bacillus subtilis ATCC 23857 incubated for 18 hrs by visual inspection method; format: functional
Escherichia coli [2] = test: Antibacterial activity against Escherichia coli ATCC 25922 incubated for 18 hrs by visual inspection method; format: functional
Acinetobacter baumannii [3] = test: Antibacterial activity against Acinetobacter baumannii ATCC 19606 incubated for 18 hrs by visual inspection method; format: functional
Klebsiella pneumoniae = test: Antibacterial activity against Klebsiella pneumoniae ATCC 700603 incubated for 18 hrs by visual inspection method; format: functional
Staphylococcus aureus [4] = test: Antibacterial activity against methicillin resistant Staphylococcus aureus 1 incubated for 18 hrs by visual inspection method; format: functional
Staphylococcus aureus [5] = test: Antibacterial activity against methicillin resistant Staphylococcus aureus 4 incubated for 18 hrs by visual inspection method; format: functional
Escherichia coli [6] = test: Antibacterial activity against ESBL Escherichia coli 1 incubated for 18 hrs by visual inspection method; format: functional
Escherichia coli [7] = test: Antibacterial activity against ESBL Escherichia coli 2 incubated for 18 hrs by visual inspection method; format: functional
Escherichia coli [8] = test: Antibacterial activity against ESBL Escherichia coli 3 incubated for 18 hrs by visual inspection method; format: functional
Escherichia coli [9] = test: Antibacterial activity against ESBL Escherichia coli 4 incubated for 18 hrs by visual inspection method; format: functional
Escherichia coli [10] = test: Antibacterial activity against ESBL Escherichia coli 5 incubated for 18 hrs by visual inspection method; format: functional
Acinetobacter baumannii [11] = test: Antibacterial activity against multidrug resistant Acinetobacter baumannii 1 incubated for 18 hrs by visual inspection method; format: functional
Acinetobacter baumannii [12] = test: Antibacterial activity against multidrug resistant Acinetobacter baumannii 3 incubated for 18 hrs by visual inspection method; format: functional
Acinetobacter baumannii [13] = test: Antibacterial activity against multidrug resistant Acinetobacter baumannii 4 incubated for 18 hrs by visual inspection method; format: functional
Acinetobacter baumannii [14] = test: Antibacterial activity against multidrug resistant Acinetobacter baumannii 5 incubated for 18 hrs by visual inspection method; format: functional
Staphylococcus aureus [15] = test: Antibacterial activity against Staphylococcus aureus ATCC 25923 incubated for 18 hrs in presence of 100 mM NaCl by visual inspection method; format: functional
Staphylococcus aureus [16] = test: Antibacterial activity against Staphylococcus aureus ATCC 25923 incubated for 18 hrs in presence of 150 mM NaCl by visual inspection method; format: functional
Escherichia coli [17] = test: Antibacterial activity against Escherichia coli ATCC 25922 incubated for 18 hrs in presence of 50 mM NaCl by visual inspection method; format: functional
Escherichia coli [18] = test: Antibacterial activity against Escherichia coli ATCC 25922 incubated for 18 hrs in presence of 100 mM NaCl by visual inspection method; format: functional
Escherichia coli [19] = test: Antibacterial activity against Escherichia coli ATCC 25922 incubated for 18 hrs in presence of 150 mM NaCl by visual inspection method; format: functional
[20] = Hemolytic activity in rat erythrocytes at 1000 ug/ml incubated for 1 hr; format: toxicity, cell-based, Erythrocyte; details: at 1000 µg/mL, read-out: Activity
Erythrocyte [21] = test: Hemolytic activity in rat erythrocytes at 500 to 1000 ug/ml incubated for 1 hr; format: toxicity, cell-based; details: dose 500-1000 µg/ml
Erythrocyte [22] = test: Hemolytic activity in rat erythrocytes at 250 ug/ml incubated for 1 hr; format: toxicity, cell-based; details: dose 250 µg/ml
[23] = Stability in Sprague-Dawley rat serum assessed as retention rate at 62.5 ug/ml measured after 2 hrs by RP-HPLC method; format: ADME, cell-free; details: at 62.5 µg/mL, read-out: Stability
Cell membrane [24] = test: Induction of cell membrane damage in Staphylococcus aureus assessed as decrease in red/green fluorescence ratio by DiOC2(3) fluorescent probe based assay; format: cell membranes
Cell membrane [25] = test: Induction of cell membrane damage in Staphylococcus aureus assessed as decrease in red/green fluorescence ratio at 2 times MIC by DiOC2(3) fluorescent probe based assay; format: cell membranes
Cell membrane [26] = test: Disruption of outer membrane integrity in Escherichia coli assessed as increase in fluorescence intensity by measuring NPN uptake at 1 to 4 times MIC by fluorescence based analysis; format: cell membranes; details: TDE = time-dependent effect
Cell membrane [27] = test: Disruption of outer membrane integrity in Escherichia coli assessed as increase in fluorescence intensity by measuring NPN uptake measured every min for 15 mins by fluorescence based analysis; format: cell membranes
Cell membrane [28] = test: Induction of inner membrane permeability in Escherichia coli ML-35 at 1 to 4 times MIC by ONPG dye based assay; format: cell membranes; details: TDE = time-dependent effect
Cell membrane [29] = test: Induction of inner membrane permeability in Escherichia coli ML-35 measured every 5 mins for 90 mins by ONPG dye based assay; format: cell membranes
Cell membrane [30] = test: Induction of cell membrane damage in Staphylococcus aureus at 4 times MIC incubated for 30 mins by PI staining based confocal laser scanning microscopic analysis; format: cell membranes
Cell membrane [31] = test: Induction of cell membrane damage in Staphylococcus aureus assessed as change in morphology by measuring roughened membrane at 4 times MIC incubated for 5 hrs by SEM analysis; format: cell membranes
Cell membrane [32] = test: Induction of cell membrane damage in Staphylococcus aureus assessed as change in morphology by measuring deformed membrane at 4 times MIC incubated for 5 hrs by SEM analysis; format: cell membranes
Cell membrane [33] = test: Induction of cell membrane damage in Staphylococcus aureus assessed as change in morphology by measuring numerous blebs covered membrane at 4 times MIC incubated for 5 hrs by SEM analysis; format: cell membranes
Cell membrane [34] = test: Induction of cell membrane damage in Escherichia coli assessed as change in morphology by measuring roughened membrane at 4 times MIC incubated for 5 hrs by SEM analysis; format: cell membranes
Cell membrane [35] = test: Induction of cell membrane damage in Escherichia coli assessed as change in morphology by measuring deformed membrane at 4 times MIC incubated for 5 hrs by SEM analysis; format: cell membranes
Staphylococcus aureus [36] = test: Bactericidal activity against Staphylococcus aureus at 2 times MIC measured after 6 hrs by time kill kinetic assay; format: functional, organism-based
Escherichia coli [37] = test: Bactericidal activity against Escherichia coli at 2 times MIC measured after 3 hrs by time kill kinetic assay; format: functional, organism-based
Staphylococcus aureus [38] = test: Inhibition of biofilm formation in Staphylococcus aureus at 8 times MIC incubated for 24 hrs by crystal violet staining based assay; format: functional
Staphylococcus aureus [39] = test: Inhibition of biofilm formation in Staphylococcus aureus at 16 times MIC incubated for 24 hrs by crystal violet staining based assay; format: functional
Staphylococcus aureus [40] = test: Inhibition of biofilm formation in Staphylococcus aureus at MIC incubated for 24 hrs by crystal violet staining based assay; format: functional
Staphylococcus aureus [41] = test: Inhibition of biofilm formation in Staphylococcus aureus at 4 times MIC incubated for 24 hrs by crystal violet staining based assay; format: functional
Staphylococcus aureus [42] = test: Antibacterial activity against Staphylococcus aureus infected in BALB/c mouse at 10 to 20 mg/kg administered every 4 hrs for 3 doses and measured after 4 hrs post last dose; format: functional, organism-based; details: dose 10-20 mg/kg, time 16.0 hrs
[43] = Toxicity in BALB/c mouse assessed as heart damage at 400 mg/kg, ip measured after 48 hrs by H and E staining based assay; format: organism-based; details: in vivo
[44] = Toxicity in BALB/c mouse assessed as kidney damage at 400 mg/kg, ip measured after 48 hrs by H and E staining based assay; format: organism-based; details: in vivo
[45] = Toxicity in BALB/c mouse assessed as edema in hepatocytes at 200 to 400 mg/kg, ip measured after 48 hrs by H and E staining based assay; format: organism-based; details: in vivo, dose 200-400 mg/kg

## CC[C@H](C)[C@H](NC(=O)[C@H](Cc1ccccc1)NC(=O)[C@@H](N)Cc1c[nH]c2ccccc12)C(=O)N[C@H](C(=O)N[C@@H](Cc1c[nH]c2ccccc12)C(=O)N[C@@H](Cc1c[nH]cn1)C(=O)N[C@@H](Cc1c[nH]c2ccccc12)C(=O)N[C@@H](CCCNC(=N)N)C(=O)N[C@@H](CCCCN)C(=O)N[C@H](C(=O)N1CCC[C@H]1C(=O)N1CCC[C@H]1C(=O)N[C@@H](CCCCN)C(N)=O)[C@@H](C)CC)[C@@H](C)CC (H-WFIIWHWRKIPPK-NH2)
[1]
  MIC: 3.75 µg/mL (≈ 2.08 µM)
Bacillus subtilis
  MIC: 3.75 µg/mL (≈ 2.08 µM)
Escherichia coli [2]
  MIC: 15 µg/mL (≈ 8.3 µM)
Acinetobacter baumannii [3]
  MIC: 7.5 µg/mL (≈ 4.15 µM)
Klebsiella pneumoniae
  MIC: 30 µg/mL (≈ 16.6 µM)
Staphylococcus aureus [4]
  MIC: 7.5 µg/mL (≈ 4.15 µM)
Staphylococcus aureus [5]
  MIC: 7.5 µg/mL (≈ 4.15 µM)
Escherichia coli [6]
  MIC: 15 µg/mL (≈ 8.3 µM)
Escherichia coli [7]
  MIC: 15 µg/mL (≈ 8.3 µM)
Escherichia coli [8]
  MIC: 15 µg/mL (≈ 8.3 µM)
Escherichia coli [9]
  MIC: 15 µg/mL (≈ 8.3 µM)
Escherichia coli [10]
  MIC: 15 µg/mL (≈ 8.3 µM)
Acinetobacter baumannii [11]
  MIC: 7.5 µg/mL (≈ 4.15 µM)
Acinetobacter baumannii [12]
  MIC: 7.5 µg/mL (≈ 4.15 µM)
Acinetobacter baumannii [13]
  MIC: 7.5 µg/mL (≈ 4.15 µM)
Acinetobacter baumannii [14]
  MIC: 7.5 µg/mL (≈ 4.15 µM)
Staphylococcus aureus [15]
  MIC: 7.5 µg/mL
Staphylococcus aureus [16]
  MIC: 7.5 µg/mL
Escherichia coli [17]
  MIC: 15 µg/mL
Escherichia coli [18]
  MIC: 15 µg/mL
Escherichia coli [19]
  MIC: 15 µg/mL
[20]
  hemolysis at 1 h, 1000 ug/ml: 10.8%
Erythrocyte [21]
  Activity: Toxic
Erythrocyte [22]
  Activity: Non-Toxic
[23]
  remaining at 2 h, 62.5 ug/ml: 41.2%
Cell membrane [24]
  Activity: Dose-Dependent Effect
Cell membrane [25]
  Activity: Active
Cell membrane [26]
  Activity: Tde
Cell membrane [27]
  Activity: Dose-Dependent Effect
Cell membrane [28]
  Activity: Tde
Cell membrane [29]
  Activity: Dose-Dependent Effect
Cell membrane [30]
  Activity: Active
Cell membrane [31]
  Activity: Active
Cell membrane [32]
  Activity: Active
Cell membrane [33]
  Activity: Active
Cell membrane [34]
  Activity: Active
Cell membrane [35]
  Activity: Active
Staphylococcus aureus [36]
  Activity: Active
Escherichia coli [37]
  Activity: Active
Staphylococcus aureus [38]
  inhibition (INH): >90%
Staphylococcus aureus [39]
  inhibition (INH): >90%
Staphylococcus aureus [40]
  inhibition (INH): 12.29%
Staphylococcus aureus [41]
  inhibition (INH): 32.46%
Staphylococcus aureus [42]
  Activity: Active
[43]
  Activity: Non-Toxic
[44]
  Activity: Non-Toxic
[45]
  Activity: Toxic
